Test results from EP0171977A1, “Phthalimide derivatives, compositions containing them and a process for preparing them” (SANKYO COMPANY LIMITED, priority 1984, dated 1986).
Where two headings read alike, the source gives them in different places.

Assays:
collateral blood vessels = test: Selective vasodilative effect on collateral blood vessels (coronary vascular resistance, method of Winburg et al.); type: in vivo; conditions: anaesthetized dogs, test compound 30 ug/kg intravenously vs glyceryl trinitrate 3 µg/kg; for Glyceryl trinitrate ratio RL/RT: ratio of selectivity (RL/RT) of test compound to that of glyceryl trinitrate; for Glyceryl trinitrate ratio RL: ratio of vascular resistance (RL) of test compound to that of glyceryl trinitrate
Protocol: The test animals employed in this experiment were dogs. Each animal was anaesthetized with pentobarbital and the chest was opened to expose the heart, whilst respiration was maintained artificially.
Following the method of Winburg et al. [J. Pharmacol. Exp. Ther., 168, 70-95 (1969)], the vascular resistance (RL) between two points, one at a large coronary artery on the cardiac surface and the other at a small coronary artery, was calculated by dividing the blood pressure difference between these two points by the blood flow. The peripheral resistance of the coronary artery (RT) was determined and the value RL was divided by the value RT, to give the selectivity (RL/RT).
Each compound of the invention tested was administered intravenously at a dose of 30 ug/kg body weight immediately prior to the measurement of vascular resistance. The same experiment was carried out employing glyceryl trinitrate at a dose of 3 µg/kg body weight and the results are reported in the following Table 1 as the glyceryl trinitrate ratios, i.e. the ratio between the vascular resistance of the test compound and that of glyceryl trinitrate or the selectivity of the test compound and that of glyceryl trinitrate.

[1] = system: right atrium of a guinea pig heart; test: Effect on heart beat: spontaneous contraction of excised right atrium; conditions: for inhibition at 100 µg/mL: Concentration 1x10^-4 g/ml; for inhibition at 30 µg/mL: Concentration 3x10^-5 g/ml
Protocol: The right atrium of a guinea pig heart was excised and placed in a bath containing Krebs - Henseleit solution maintained at 37°C, through which was bubbled a gas containing 95% oxygen and 5% carbon dioxide. […] The results, in terms of the percentage decrease (-) or increase (+) in the rate of heart beat, for the compounds of the invention and for glyceryl trinitrate are shown in Table 2.

[2] = Cavia porcellus, Krebs - Henseleit solution, 37°C, read-out: percentage decrease (-) or increase (+) in the rate of heart beat
[3] = Cavia porcellus, Concentration 1x10^-5 g/ml, Krebs - Henseleit solution, 37°C, read-out: percentage decrease (-) or increase (+) in the rate of heart beat
[4] = Cavia porcellus, read-out: percentage decrease (-) or increase (+) in the rate of heart beat

Structure (SMILES) | Glyceryl trinitrate ratio RL/RT (collateral blood vessels) | Glyceryl trinitrate ratio RL (collateral blood vessels) | inhibition at 100 µg/mL [1, 2] [%] | inhibition at 10 µg/mL [1, 3] [%] | inhibition at 30 µg/mL [1, 2] [%] | inhibition at 1 µg/mL [1, 4] [%] | inhibition at 3 µg/mL [1, 4] [%] | inhibition at 10 µg/mL [1, 4] [%] | change in the heart beat ([1]; added at doses between 10^-6 and 10 ^5 g/ml)
CCN(CC)CCOc1ccc2c(c1)C(=O)N(CCO[N+](=O)[O-])C2=O [Compound No. 25, N-(2-nitrooxyethyl)-4-(2-N,N-diethylaminoethoxy)-phthalimide] | 1.6 | 1.6 | 73 | 53 | 67 |  |  |  | 
CC(C)N(CCOc1ccc2c(c1)C(=O)N(CCO[N+](=O)[O-])C2=O)C(C)C [Compound No. 27, N-(2-nitrooxyethyl)-4-(2-N,N-diisopropylamino-ethoxy)phthalimide] | 1.4 | 1.8 | 71 | 59 | 64 |  |  |  | 
CN(C)CCCOc1ccc2c(c1)C(=O)N(CCO[N+](=O)[O-])C2=O [Compound No. 51, N-(2-nitrooxyethyl)-4-(3-N,N-dimethylamino-propoxy)phthalimide] | 1.4 | 1.6 | 64 | 31 | 58 |  |  |  | 
CC(COc1ccc2c(c1)C(=O)N(CCO[N+](=O)[O-])C2=O)CN(C)C (centres unmarked) [Compound No. 54, N-(2-nitrooxyethyl)-4-(3-N,N-dimethylamino-2-methylpropoxy)phthalimide] | 2.1 | 1.7 | 62 | 37 | 56 |  |  |  | 
O=C1c2ccc(OCCN3CCCCC3)cc2C(=O)N1CCO[N+](=O)[O-] [Compound No. 59, N-(2-nitrooxyethyl)-4-(2-piperidinoethoxy)-phthalimide] | 1.6 | 1.2 | 74 | 32 | 61 |  |  |  | 
O=[N+]([O-])OCC(CO[N+](=O)[O-])O[N+](=O)[O-] [Glyceryl trinitrate, reference compound] |  |  |  |  |  | 0 | -1 | 0 | very little or no change
